This is an account of results in US20240110200A1, “Recombinant AAV Vectors and Gene Therapies for Treating Brain Diseases” (City University of Hong Kong, priority 2022, published 2024).

*1 amine or outer side, *2 acyl side, *3 side chain or, on linkers, in order; H or OH if unused. Where a SMILES comes first, the peptide text is derived from it. Where no end group is shown, it is not given here. Side-chain parts run from the residue outwards. [ ]: non-standard residue; d: D form. The star is where a group is joined. NMeF = CN[C@@H](Cc1ccccc1)C(=O)O; NH(2-Me-phenyl) = Cc1ccccc1N*; Boc = CC(C)(C)OC(=O)*; CO = O=C([*:1])[*:2]; Ahx = NCCCCCC(=O)O

What is called IC50 is the midpoint of a concentration-inhibition curve. Lower therefore signals greater potency in that assay.

Assay [1] deals with T1, GPR173 (Homo sapiens, UniProt Q9NS66). Kind of assay: Calcium imaging assay in CHO-GPR173 cell line. Type of assay: cell-based. To be noted: for calcium signal in CHO-GPR173 cells: after incubation with the peptide.
Description: (§1) All measurements of calcium imaging are performed by EnVision 2104 Multilabel Reader (Perkin Elmer, Waltham, Massachusetts, US, https://www.perkinelmer.com, excitation: 485 nm and emission: 535 nm). […] Cells are cultured at 37° C., 5% CO2 in DMEM/F-12 medium (Thermo Fisher, Waltham, MA, US, https://www.thermofisher.cn) containing 10% FBS (Natocor-Industria Biológica) and washed with DMEM/F-12 medium once after overnight incubation.
Assay [2] deals with pyramidal neurons (CCK-GABA synapses) in the AC. The assay is described as follows: In vitro patch-clamp recording of laser-evoked IPSC in pyramidal neurons of auditory cortex brain slices. The assay is classed as cell-based, CCK-Cre mice. On the procedure: In the experiments of FIGS. 2-3, a protective cutting and recovery method is adopted in preparing acute brain slices of CCK-Cre, PV-Cre, CCK-KO, and CCK1R/2R-KO mice to achieve a higher success rate for patch-clamp, as previously described in Chen, X., et al., Natl. Acad. Sci., Vol. 116, pp. 2019. Briefly, the anaesthetized mice are perfused transcardially with NMDG-aCSF (92 mM NMDG, 2.5 mM KCl, 1.25 mM NaH2PO4, 30 mM NaHCO3, 20 mM HEPES, 25 mM glucose, 2 mM thiourea, 5 mM Na-ascorbate, 3 mM Na-pyruvate, 0.5 mM CaCl2·4H2O, and 10 mM MgSO4·7H2O; pH 7.3-7.4), and the brain is extracted and cut into 300 μm-thick sections. The slices are transferred to NMDG-aCSF for 10 min at 32-34° C. to allow protective recovery and then to room-temperature HEPES-aCSF (92 mM NaCl, 2.5 mM KCl, 1.25 mM NaH2PO4, 30 mM NaHCO3, 20 mM HEPES, 25 mM glucose, 2 mM thiourea, 5 mM Na-ascorbate, 3 mM Na-pyruvate, 2 mM CaCl2·4H2O, and 2 mM MgSO4·7H2O; pH 7.3-7.4) for at least 1 h before recording.
Whole-cell recordings (with Multiclamp 700B amplifier and Digital 1440A digitizer, Molecular Devices, www.moleculardevices.com, Menlo Park, California, USA), targeting the AC of the brain slices in room-temperature aCSF (119 mM NaCl, 2.5 mM KCl, 1.25 mM NaH2PO4, 24 mM NaHCO3, 12.5 mM glucose, 2 mM CaCl2·4H2O and 2 mM MgSO4·7H2O, ˜25° C.) are performed. Patch pipettes are pulled with resistance between 3-5 MQ from borosilicate glass (WPI, World Precision Instruments; UK; httpss://www.wpiinc.com/) on a Sutter-87 puller (Sutter Instrument; CA, US, https://www.sutter.com/). The intracellular solution contains: 145 mM K-Gluconate, 10 mM HEPES, 1 mM EGTA, 2 mM Mg-ATP, 0.3 mM Na2-GTP, and 2 mM MgCl2; pH 7.3; 290-300 mOsm. Similarly, after Giga-Ohm seal formation, recordings are made and then terminated if Rs changes more than 20%. Pyramidal neurons are selected based on the pyramidal-like shape and the firing pattern of regular spiking by injecting step currents.
Laser stimulation is applied through an optical fiber placed ˜200 μm from the recording neuron using Aurora-220 (473 nm, NEWDOON, Changchun, China; http://www.newdoon.com/) to activate ChR2^+ neurons (GABAergic). In the examples, only neurons that respond to the laser pulse is recruited. HFLS (10-pulse burst at 40 Hz, repeated for 10 trials) or Low-frequency Laser Stimulation (LFLS, 1 Hz, 100 pulses) with a 15-s interval is delivered. Inhibitory postsynaptic currents (IPSCs) to the laser stimulation (1 pulse per 15 s, 5 ms in duration) under voltage-clamp recording mode (holding at −60 mV to −50 mV) are recorded for 5 min as the baseline before and for 25 min after the HFLS or LFLS.
For the normalization of recorded IPSC in the CCK-Cre, PV-Cre, CCK-KO, and CCK1R/2R-KO mice, only the patched neurons are recruited when the IPSC is greater than 35 pA.
(The patch-clamp technique gives a direct electrical read-out from membranes.)

For assay [3], the target named is T1, GPR173. The assay is described as follows: Antagonism of CCK1R/2R antagonists to GPR173. Type of assay: cell-based.
Description: as §1
Assay [4] has as its target T2, Flag-GPR173 (Homo sapiens, UniProt Q9NS66).
T2 construct: host or cells: HEK293T
Kind of assay: Cell surface binding assay, HEK293T cells transfected with Flag-GPR173. To be noted: CCK-binding assay, FIG. 4B. The method, then: HEK293T cells are transfected with pCDNA3.1(+)-Flag-GPCR (purchased from Public Protein/Plasmid Library, Nanjing, China, http://ppl.biogot.com; or home-made by us based on pCDNA3.1(+) backbone). The cells are incubated with HA-ε-Ahx-ε-Ahx or HA-(ε-Ahx)2-CCK8s dissolved in HHBS solution (Hank's solution including 20 mM N-2-hydroxyethylpiperazine-N′-2-ethanesulfonic acid (HEPES), pH=7.4) for 30 min at room temperature, 48 h after transfection by Lipo6000 (Beyotime Biotechnology, Shanghai, China, https://www.beyotime.com/). After three washes with HHBS, cells are fixed in 4% paraformaldehyde and 4% sucrose in PBS for 15 min at room temperature. Cells are blocked in 5% normal goat serum in PBS, and staining is performed in detergent-free conditions without cell permeabilization after three washes by PBS. Primary antibody rabbit anti-HA (CST, 3724 Boston, US, https://www.cellsignal.com), anti-GPR173 (PA5-50976, ThermoFisher, Waltham, MA, US, https://www.thermofisher.cn) and mouse anti-Flag (CST-8146, Boston, US, https://www.cellsignal.com) are used to detect HA and Flag tags. For binding assay of pCDNA3.1(+)-AcGFP-CCK1R, only rabbit anti-HAprimary antibody is used to detectHAtag. Images are captured on a Leica SP8 confocal microscope (Leica Microsystems, Danaher Corporation, US, https://www.leica-microsystems.com/). […]

In assay [5] the target is T3, Flag-HTR1B on transfected HEK293T cells (UniProt P28222 1-390).
T3 construct: whole, on cells
Kind of assay: cell surface binding assay on HEK293T cells transfected with Flag-tagged GPCRs, anti-HA and anti-Flag staining, confocal.
Description: HEK293T cells are transfected with pCDNA3.1(+)-Flag-GPCR (purchased from Public Protein/Plasmid Library, Nanjing, China, http://ppl.biogot.com; or home-made by us based on pCDNA3.1(+) backbone). […] After three washes with HHBS, cells are fixed in 4% paraformaldehyde and 4% sucrose in PBS for 15 min at room temperature. Cells are blocked in 5% normal goat serum in PBS, and staining is performed in detergent-free conditions without cell permeabilization after three washes by PBS. […] For binding assay of pCDNA3.1(+)-AcGFP-CCK1R, only rabbit anti-HAprimary antibody is used to detectHAtag. Images are captured on a Leica SP8 confocal microscope (Leica Microsystems, Danaher Corporation, US, https://www.leica-microsystems.com/). Images within each experiment are collected using identical laser-power, offset, and gain.

T1 sequence (Q9NS66 whole entry, species assumed, the tested form may be a part): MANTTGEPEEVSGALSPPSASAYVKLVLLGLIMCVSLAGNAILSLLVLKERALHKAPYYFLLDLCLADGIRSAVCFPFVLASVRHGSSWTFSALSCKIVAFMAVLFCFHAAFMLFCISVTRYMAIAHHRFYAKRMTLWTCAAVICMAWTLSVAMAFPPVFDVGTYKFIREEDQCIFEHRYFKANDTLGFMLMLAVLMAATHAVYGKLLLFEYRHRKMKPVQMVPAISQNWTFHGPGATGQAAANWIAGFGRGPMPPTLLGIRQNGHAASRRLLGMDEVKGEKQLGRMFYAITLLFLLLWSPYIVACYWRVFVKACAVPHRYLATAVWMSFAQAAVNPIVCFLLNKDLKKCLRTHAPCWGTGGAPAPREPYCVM
T3 sequence (P28222 whole entry): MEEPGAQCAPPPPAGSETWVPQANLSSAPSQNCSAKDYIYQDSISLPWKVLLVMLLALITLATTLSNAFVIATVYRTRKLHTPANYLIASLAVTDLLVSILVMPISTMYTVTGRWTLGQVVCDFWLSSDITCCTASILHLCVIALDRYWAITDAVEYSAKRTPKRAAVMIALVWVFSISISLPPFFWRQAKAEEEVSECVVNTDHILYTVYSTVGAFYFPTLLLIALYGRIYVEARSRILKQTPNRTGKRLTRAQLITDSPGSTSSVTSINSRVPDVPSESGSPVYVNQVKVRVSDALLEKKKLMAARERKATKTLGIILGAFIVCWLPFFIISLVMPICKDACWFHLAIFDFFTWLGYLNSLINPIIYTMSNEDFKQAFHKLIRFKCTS
T2 sequence (Q9NS66 whole entry): as the sequence (Q9NS66 whole entry, species assumed, the tested form may be a part) above

For the molecule `Cc1ccccc1NC(=O)NCCCC[C@H](NC(=O)[C@H](Cc1c[nH]c2ccccc12)NC(=O)OC(C)(C)C)C(=O)N[C@@H](CC(=O)O)C(=O)N(C)[C@@H](Cc1ccccc1)C(N)=O` [A-71623] (Boc-WK([CO-NH(2-Me-phenyl)])D[NMeF]-NH2), the “activation of the CHO-GPR173 cell line” value in assay [1] (even at 100 μM) is recorded as “does not activate”. For `CN1C(=O)[C@@H](NC(=O)c2cc3ccccc3[nH]2)N=C(c2ccccc2)c2ccccc21` [Devazepide], the “blockade of HFLS-induced iLTP” value in assay [2] (Devazepide 60 nM in bath solution) is on record as “entirely blocks the iLTP”. The “normalized IPSC 20-25 min after Devazepide infusion and the HFLS” value in assay [2] (Devazepide 60 nM in bath solution, baseline 100.18±1.91, HFLS alone 183.70±6.25%, n=8) stood at 103.24±2.54%. In assay [3], this molecule yielded an IC50 of 12.3 ± 3.41 nM. In assay [3], `Cc1cccc(NC(=O)N[C@@H]2N=C(c3ccccc3)c3ccccc3N(C)C2=O)c1` [L365,260] returned an IC50 of 16800 nM. Take `CCCCCN(CCCOC)C(=O)C(CCC(=O)O)NC(=O)c1ccc(Cl)c(Cl)c1` (centres unmarked) [Loxiglumide]: the IC50 in assay [3] amounted to 715 ± 99.4 nM.

In the case of `CNc1cccc(NC(=O)N[C@@H]2N=C(c3ccccn3)c3ccccc3N(CC(=O)C(C)(C)C)C2=O)c1` [YF476], the IC50 in assay [3] was 3100 nM.

With CCK4: CCK2R-selective agonist, in assay [1], the “calcium signal in CHO-GPR173 cells” value is listed as “evokes no response”. For CCK8s, the “binding affinity of Flag-GPR173 with CCK8s” value in assay [4] is given as “prominent binding affinity”. Besides, the “normalized IPSC amplitude 25-30 min after CCK8s+1 Hz” value in assay [2] (200-nM CCK8s bath application 3 min before LFLS (1 Hz, 100 pulses), baseline 100.00±2.53, n=8 neurons) was determined as 161.84±4.38%. For the same molecule, the “iLTP after CCK8s followed by LFLS” value in assay [2] (CCK8s+1 Hz group vs aCSF+1 Hz) is listed as “large iLTP”. In addition, the “calcium signal in CHO-GPR173 cells” value in assay [1] is listed as “strong calcium response”. On to “Phoenixin (DVQPPGLKVWSDPF) [PNX, Phoenixin, peptide claimed in the literature to act through GPR173]”, for which the “calcium signal in CHO-GPR173 cells” value in assay [1] is reported as “no calcium signal”.

B1: HA2A8s (HA-ε-Ahx-ε-Ahx-CCK8s) (peptide, UniProt P06307 96-103, looked up, not shown: small tags and cut ends)
peptide: {HA tag-Ahx-Ahx}-DYMGWMDF
modifications: ends and bridges not checked; also: sulphated CCK8, site not given here
notes: Chemically synthesised; also called HA-(ε-Ahx)2-CCK8s; HA-labeled CCK8s
For the molecule B1, the binding result in assay [5] is on record as “no binding”.
